Structures can show the parent of a compound that is named as a salt. ± gives the standard error.
These molecules were tested on 621-102 (TSC2-deficient) (assay: relative viability vs DMSO; higher = less cytotoxic). Conditions: 0.1 µM; serum: 10% FBS; 72 h.
Work on `CCS(=O)(=O)Nc1ccc2c(c1)/C(=C(/Nc1ccc(CN3CCCCC3)cc1)c1ccccc1)C(=O)N2` [Hesperadin] yielded a relative viability of 85.2 ± 1.8%. `CC[C@H](c1ccc(O)cc1)[C@@H](CC)c1ccc(O)cc1` [Hexestrol (Bibenzyl)] gave a relative viability of 100 ± 6.5%. Molecule `O=C1[C@H](Cc2ccc(O)cc2)N2C(=O)CCN(C(=O)NCc3ccccc3)[C@H]2CN1Cc1cccc2ccccc12` [ICG-001] has a relative viability of 102 ± 4.2%. Molecule `CCN(CC)Cc1ccc2cc(COC(=O)Nc3ccc(C(=O)NO)cc3)ccc2c1` [ITF2357] has a relative viability of 76.42 ± 0.1%. Molecule `CC(C)Cc1ccc(C(C)C(=O)O)cc1` (configuration not stated) [Ibuprofen] has a relative viability of 112.4 ± 0.85%. In the case of `COc1ccc(-c2oc3c(CC=C(C)C)c(O[C@@H]4O[C@H](CO)[C@@H](O)[C@H](O)[C@H]4O)cc(O)c3c(=O)c2O[C@@H]2O[C@@H](C)[C@H](O)[C@@H](O)[C@H]2O)cc1` [Icariin], the relative viability is reported as 102 ± 5.1%. Molecule `Cc1ccc(NC(=O)c2ccc(CN3CCN(C)CC3)cc2)cc1Nc1nccc(-c2cccnc2)n1` [Imatinib (STI571)] has a relative viability of 109 ± 3.3%. For `Cc1ccc(NC(=O)c2ccc(CN3CCN(C)CC3)cc2)cc1Nc1nccc(-c2cccnc2)n1` [Imatinib Mesylate], the relative viability was 111 ± 3.6%. Molecule `CCCCC1=NC2(CCCC2)C(=O)N1Cc1ccc(-c2ccccc2-c2nnn[nH]2)cc1` [Irbesartan (Avapro)] has a relative viability of 101 ± 4.9%. With `CCc1c2c(nc3ccc(OC(=O)N4CCC(N5CCCCC5)CC4)cc13)-c1cc3c(c(=O)n1C2)COC(=O)[C@]3(O)CC` [Irinotecan HCl Trihydrate] the relative viability was 108 ± 4.1%. Work on `CCc1c2c(nc3ccc(OC(=O)N4CCC(N5CCCCC5)CC4)cc13)-c1cc3c(c(=O)n1C2)COC(=O)[C@]3(O)CC` [Irinotecan] yielded a relative viability of 108 ± 2.8%. For `Clc1ccc(C(Cn2ccnc2)OCc2c(Cl)cccc2Cl)c(Cl)c1` (configuration not stated) [Isoconazole], the relative viability was 108.4 ± 0.37%. `CC(C)NCC(O)c1ccc(O)c(O)c1` (configuration not stated) [Isoprenaline HCl] was tested, and the relative viability was 95.5 ± 4.2%. Molecule `Cc1ccc(C(=O)N(CCCN)[C@@H](c2nc3cc(Cl)ccc3c(=O)n2Cc2ccccc2)C(C)C)cc1` [Ispinesibmesilate] has a relative viability of 63.9 ± 3%.

Same assay, conditions: 1 µM; serum: 10% FBS; 72 h
Molecule `CCS(=O)(=O)Nc1ccc2c(c1)/C(=C(/Nc1ccc(CN3CCCCC3)cc1)c1ccccc1)C(=O)N2` [Hesperadin] has a relative viability of 59.2 ± 1.9%. Work on `CC[C@H](c1ccc(O)cc1)[C@@H](CC)c1ccc(O)cc1` [Hexestrol (Bibenzyl)] yielded a relative viability of 113 ± 2.7%. In the case of `O=C1[C@H](Cc2ccc(O)cc2)N2C(=O)CCN(C(=O)NCc3ccccc3)[C@H]2CN1Cc1cccc2ccccc12` [ICG-001], the relative viability is reported as 98.9 ± 2.3%. Molecule `CCN(CC)Cc1ccc2cc(COC(=O)Nc3ccc(C(=O)NO)cc3)ccc2c1` [ITF2357] has a relative viability of 57.1 ± 3.5%. `CC(C)Cc1ccc(C(C)C(=O)O)cc1` (configuration not stated) [Ibuprofen] showed a relative viability of 106 ± 1.3%. `COc1ccc(-c2oc3c(CC=C(C)C)c(O[C@@H]4O[C@H](CO)[C@@H](O)[C@H](O)[C@H]4O)cc(O)c3c(=O)c2O[C@@H]2O[C@@H](C)[C@H](O)[C@@H](O)[C@H]2O)cc1` [Icariin] showed a relative viability of 87.9 ± 11%. `Cc1ccc(NC(=O)c2ccc(CN3CCN(C)CC3)cc2)cc1Nc1nccc(-c2cccnc2)n1` [Imatinib (STI571)] was tested, and the relative viability was 108 ± 2.7%. For `Cc1ccc(NC(=O)c2ccc(CN3CCN(C)CC3)cc2)cc1Nc1nccc(-c2cccnc2)n1` [Imatinib Mesylate], the relative viability was 107 ± 3.1%. For `CCCCC1=NC2(CCCC2)C(=O)N1Cc1ccc(-c2ccccc2-c2nnn[nH]2)cc1` [Irbesartan (Avapro)], the relative viability was 110 ± 1.1%. `CCc1c2c(nc3ccc(OC(=O)N4CCC(N5CCCCC5)CC4)cc13)-c1cc3c(c(=O)n1C2)COC(=O)[C@]3(O)CC` [Irinotecan HCl Trihydrate] showed a relative viability of 99.4 ± 3%. For `CCc1c2c(nc3ccc(OC(=O)N4CCC(N5CCCCC5)CC4)cc13)-c1cc3c(c(=O)n1C2)COC(=O)[C@]3(O)CC` [Irinotecan], the relative viability was 82 ± 0.64%. In the case of `Clc1ccc(C(Cn2ccnc2)OCc2c(Cl)cccc2Cl)c(Cl)c1` (configuration not stated) [Isoconazole], the relative viability is reported as 107 ± 1.4%. Molecule `CC(C)NCC(O)c1ccc(O)c(O)c1` (configuration not stated) [Isoprenaline HCl] has a relative viability of 94.6 ± 2.4%. In the case of `Cc1ccc(C(=O)N(CCCN)[C@@H](c2nc3cc(Cl)ccc3c(=O)n2Cc2ccccc2)C(C)C)cc1` [Ispinesibmesilate], the relative viability is reported as 73 ± 1.6%.

Same assay, conditions: 10 µM; serum: 10% FBS; 72 h
`CCS(=O)(=O)Nc1ccc2c(c1)/C(=C(/Nc1ccc(CN3CCCCC3)cc1)c1ccccc1)C(=O)N2` [Hesperadin] was tested, and the relative viability was 2.25 ± 0.32%. Molecule `CC[C@H](c1ccc(O)cc1)[C@@H](CC)c1ccc(O)cc1` [Hexestrol (Bibenzyl)] has a relative viability of 99.9 ± 5.4%. For `O=C1[C@H](Cc2ccc(O)cc2)N2C(=O)CCN(C(=O)NCc3ccccc3)[C@H]2CN1Cc1cccc2ccccc12` [ICG-001], the relative viability was 52.9 ± 0.89%. `CCN(CC)Cc1ccc2cc(COC(=O)Nc3ccc(C(=O)NO)cc3)ccc2c1` [ITF2357] gave a relative viability of 25.4 ± 0.77%. `CC(C)Cc1ccc(C(C)C(=O)O)cc1` (configuration not stated) [Ibuprofen] gave a relative viability of 104 ± 3.3%. With `COc1ccc(-c2oc3c(CC=C(C)C)c(O[C@@H]4O[C@H](CO)[C@@H](O)[C@H](O)[C@H]4O)cc(O)c3c(=O)c2O[C@@H]2O[C@@H](C)[C@H](O)[C@@H](O)[C@H]2O)cc1` [Icariin] the relative viability was 80.99 ± 0.32%. In the case of `Cc1ccc(NC(=O)c2ccc(CN3CCN(C)CC3)cc2)cc1Nc1nccc(-c2cccnc2)n1` [Imatinib (STI571)], the relative viability is reported as 95.35 ± 0.94%. For `Cc1ccc(NC(=O)c2ccc(CN3CCN(C)CC3)cc2)cc1Nc1nccc(-c2cccnc2)n1` [Imatinib Mesylate], the relative viability was 94.78 ± 0.7%. Molecule `CCCCC1=NC2(CCCC2)C(=O)N1Cc1ccc(-c2ccccc2-c2nnn[nH]2)cc1` [Irbesartan (Avapro)] has a relative viability of 104 ± 2.6%. For `CCc1c2c(nc3ccc(OC(=O)N4CCC(N5CCCCC5)CC4)cc13)-c1cc3c(c(=O)n1C2)COC(=O)[C@]3(O)CC` [Irinotecan HCl Trihydrate], the relative viability was 63.351 ± 0.053%. With `CCc1c2c(nc3ccc(OC(=O)N4CCC(N5CCCCC5)CC4)cc13)-c1cc3c(c(=O)n1C2)COC(=O)[C@]3(O)CC` [Irinotecan] the relative viability was 33.7 ± 0.69%. Molecule `Clc1ccc(C(Cn2ccnc2)OCc2c(Cl)cccc2Cl)c(Cl)c1` (configuration not stated) [Isoconazole] has a relative viability of 100 ± 4.3%. Work on `CC(C)NCC(O)c1ccc(O)c(O)c1` (configuration not stated) [Isoprenaline HCl] yielded a relative viability of 98.26 ± 0.6%. `Cc1ccc(C(=O)N(CCCN)[C@@H](c2nc3cc(Cl)ccc3c(=O)n2Cc2ccccc2)C(C)C)cc1` [Ispinesibmesilate] was tested, and the relative viability was 1.22 ± 0.096%.
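Further: immortalized renal angiomyolipoma cells stably carrying empty vector or TSC2, dosed in 384-well plates in DMEM, viability normalized to vehicle-treated wells within each plate.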
